# Data published in PMC5983770, “Preferential Inhibition of Wnt/β-Catenin Signaling by Novel Benzimidazole Compounds in Triple-Negative Breast Cancer” (International Journal of Molecular Sciences, 2018).
# Read-outs that look alike come from different tables or passages of the source.
# Tests used:
# pSTAT3 (Y705), STAT3 = assay: Western blot of STAT3 phosphorylation and STAT3β isoform; format: cell-based; settings: for expression of the pSTAT3β and total STAT3β isoform (lower band): MDA-MB-468 and MCF10A cells; for expression of the pSTAT3β and total STAT3β isoform (lower band) / STAT3 phosphorylation: 18 h; for STAT3 phosphorylation: TNBC and MCF10A cells, 2.5 or 5 µM
# Description: (§1) Cells were seeded in 6-well tissue-culture treated plates for 48 h until 80% confluency prior to treatment. Whole cell extracts were prepared with Laemmli buffer (5% SDS, 10% glycerol, 0.5 M Tris-Cl) supplemented with protease and phosphatase inhibitors and equivalent amounts of proteins were separated by SDS-PAGE. Proteins were transferred to polyvinylidene difluoride (PVDF) membrane (Bio-Rad, Hercules, CA, USA) and blocked with 5% BSA in tris-buffered saline (TBS) supplemented with 0.1% Tween-20 for 1 h. Membranes were incubated with primary antibody overnight on a shaker at 4 °C. They were then washed and incubated with secondary antibody for 1 h. Bands were visualized with the Enhanced Chemiluminescence Detection reagents (PerkinElmer).
# p4EBP1 (mTOR signaling) [1] = assay: Western blot of 4EBP1 phosphorylation (mTOR signaling) in MCF10A cells; format: cell-based; settings: 18 h
# Description: as §1
# [2] = tested on: SUM149, SUM159, MDA-MB-231 and MDA-MB-468 TNBC cell lines; assay: In vitro cytotoxicity (Cell Titer Glo cell viability); settings: for IC50: Homo sapiens, 72 h, read-out: IC50 values for TNBC cell lines (cell viability); for selective cytotoxicity against TNBC cell lines compared to MCF10A cells: TNBC cell lines versus MCF10A cells
# Description: (§3) MCF10A and TNBC cells (2 × 10^3) were seeded with appropriate growth media containing 10% FBS in each well of tissue culture-treated 96-well black plates (Corning #3904) (Corning, NY, USA) 16 h prior to treatment. […] Cell viability was then evaluated with Cell Titer Glo (Promega, Madison, WI, USA) and luminescence was measured using a TOPCount NXT plate reader (PerkinElmer, Waltham, MA, USA). Curves were fit according to nonlinear regression and IC50 values were calculated using GraphPad Prism 7. Cells were treated in quadruplicates and experiments were performed three times.
# p4EBP1 (mTOR signaling) [3] = assay: Western blot of 4EBP1 phosphorylation (mTOR signaling) in TNBC cell lines; format: cell-based, human; settings: for phosphorylation of 4EBP1: both TNBC cell lines, 18 h
# Description: as §1
# active β-catenin = assay: Immunocytochemistry of active β-catenin; format: cell-based, human; settings: MDA-MB-231 and MDA-MB-468 cells, 5 µM, 18 h
# Description: Cells were seeded on coverslips for 48 h prior to treatment with DMSO and SR compounds for 18 h. Cells were washed with PBS, fixed with 4% paraformaldehyde for 20 min and permeabilized with 0.5% Triton X-100 for 20 min. Following blocking with 3% BSA for 30 min, cells were incubated overnight with active β-catenin antibody (MilliporeSigma) at 4 °C. Cells were incubated with Alexa 488 goat anti-mouse secondary antibody (1:1000) at room temperature for 1 h. To counterstain, cells were incubated with 1:5000 Hoechst 33342 for 20 min. […] Images were obtained at 20× magnification.
# cyclin D1 and survivin [4] = assay: Western blot of cyclin D1 and survivin in MCF10A cells; format: cell-based; settings: 2.5 µM, 18 h, compared with niclosamide
# Description: as §1
# [5] = tested on: noncancerous MCF10A cells; assay: In vitro cytotoxicity (Cell Titer Glo cell viability); format: cell-based; settings: Homo sapiens, MCF-10A; 0–5 µM, 72 h
# Description: as §3
# Notch signaling (Hes1) = assay: Western blot of Notch signaling (Hes1); format: cell-based; settings: as summarised in the abstract
# Description: as §1
# cyclin D1 and survivin [6] = assay: Western blot of cyclin D1 and survivin in TNBC cells; format: cell-based, human; settings: 2.5 and 5 µM, 18 h
# Description: as §1
# phosphorylated LRP6 [7] = assay: Western blot of phosphorylated LRP6 in MCF10A cells; format: cell-based; settings: 2.5 or 5 µM, 18 h
# Description: as §1
# phosphorylated LRP6 [8] = assay: Western blot of phosphorylated LRP6 in TNBC cell lines; format: cell-based, human; settings: both TNBC cell lines (MDA-MB-231, MDA-MB-468), 18 h
# Description: as §1
# MDA-MB-231 cells = assay: Annexin V/PI apoptosis assay (flow cytometry); format: cell-based, human; settings: 48 h; for percentage of MDA-MB-231 cells in the late apoptotic phase (% of total): 5 µM, vehicle control 8.1%; for apoptosis compared to DMSO / scatterplot quadrant Q1 (Annexin V/PI) / scatterplot quadrant Q3 (Annexin V/PI) / scatterplot quadrant Q2 (Annexin V/PI) / scatterplot quadrant Q4 (Annexin V/PI): MDA-MB-231, 5 µM; for scatterplot quadrant Q1 (Annexin V/PI): DMSO 1.1; for scatterplot quadrant Q3 (Annexin V/PI): DMSO 3.4; for scatterplot quadrant Q2 (Annexin V/PI): DMSO 8.1; for scatterplot quadrant Q4 (Annexin V/PI): DMSO 87.5
# Description: (§2) Cells were seeded in 6-well tissue-culture treated plates (Corning) for overnight incubation. Culture media was replaced with growth media containing 1% FBS. Cells were treated with compounds for 48 h prior to harvest. Apoptosis/necrosis was detected by the FITC Annexin V Apoptosis Detection Kit I from Becton Dickinson (San Jose, CA, USA). Cells positive for Annexin V, propidium iodide (PI) or both were all designated as apoptotic.
# MDA-MB-468 cells = assay: Annexin V/PI apoptosis assay (flow cytometry); format: cell-based, human; settings: MDA-MB-468, 5 µM, 48 h
# Description: as §2
# [9] = tested on: active (non-phosphorylated) β-catenin; assay: Western blot of active β-catenin after cytoplasmic-nuclear fractionation; format: cell-based, human; settings: 5 µM, 18 h; for nuclear active β-catenin expression (Western blot): TNBC cells
# Description: as §1
# Cells were lysed using the CERI and CERII reagents of the cytoplasmic-nuclear extraction kit (ThermoFisher), to obtain cytoplasmic fractions following treatment. Nuclear fractions were isolated by using 1× Laemmli buffer and sonication for a few seconds. Membrane was incubated overnight with active β-catenin (MilliporeSigma, Burlington, MA, USA), lamin A/C and tubulin antibodies.
# [10] = tested on: SUM149, SUM159, MDA-MB-231 and MDA-MB-468 TNBC cell lines
# Description: as §3
# Wnt/β-catenin signaling [11] = settings: cited from earlier work
# [12] = cited from earlier work
# [13] = pH 7.4; introduction, no reference given; cited from earlier work
# [14] = rat liver microsomes; introduction, no reference given; cited from earlier work
# phosphodiesterase = tested on: phosphodiesterase; parameters: method as in PMID 22264761; settings: screen of thirty 6-nitrobenzimidazoles; cited from earlier work
# Wnt/β-catenin signaling [15] = assay: Effect on Wnt/β-catenin signaling (Western blot); format: cell-based; settings: as summarised in the abstract
# Description: as §1
# [16] = parameters: method as in PMID 20194742; settings: cited from earlier work
Molecule,"expression of the pSTAT3β and total STAT3β isoform (lower band) (pSTAT3 (Y705), STAT3)","STAT3 phosphorylation (pSTAT3 (Y705), STAT3)",IC50 [2] [nM],IC50 [5] [nM],phosphorylated LRP6 (phosphorylated LRP6 [7]),percentage of MDA-MB-231 cells in the late apoptotic phase (% of total) (MDA-MB-231 cells) [%],apoptosis compared to DMSO (MDA-MB-231 cells),scatterplot quadrant Q1 (Annexin V/PI) (MDA-MB-231 cells),scatterplot quadrant Q3 (Annexin V/PI) (MDA-MB-231 cells),scatterplot quadrant Q2 (Annexin V/PI) (MDA-MB-231 cells),scatterplot quadrant Q4 (Annexin V/PI) (MDA-MB-231 cells),apoptosis compared to DMSO (MDA-MB-468 cells),also measured
"Oc1ccc(Cl)cc1-c1nc2cc(Cl)c(Cl)cc2[nH]1 [SRI35889, 4-Chloro-2-(5,6-dichloro-1H-benzo[d]imidazol-2-yl)phenol]",not,noticeably less of an effect,1100 to 2400,5400,not,26.5,induced significantly more apoptosis,15.1,11.0,26.5,47.4,induced significantly more apoptosis,"phosphorylation of 4EBP1 (p4EBP1 (mTOR signaling) [1]; 2.5 µM, compared with TNBC cell lines): less of a change; phosphorylation of 4EBP1 (p4EBP1 (mTOR signaling) [3]; 2.5 and 5 µM): inhibited 4EBP1 phosphorylation; nuclear active β-catenin expression (immunocytochemistry) (active β-catenin): a decrease in nuclear active β-catenin expression; cyclin D1 or survivin expression (cyclin D1 and survivin [4]): did not affect cyclin D1 or survivin expression as much as niclosamide; effect on Notch signaling (Notch signaling (Hes1)): not affecting; expression of cyclin D1 and survivin (cyclin D1 and survivin [6]): decreased expression; phosphorylated LRP6 (phosphorylated LRP6 [8]; 2.5 and 5 µM): decreased phosphorylated LRP6; cytoplasmic β-catenin (Western blot) ([9]; MDA-MB-468 cells): decreased cytoplasmic β-catenin; nuclear active β-catenin expression (Western blot) [9]: decreased nuclear active β-catenin expression"
2-(5-Chloro-6-fluoro-1H-benzo[d]imidazol-2-yl)-4-fluorophenol [SRI35361],–,–,–,–,–,–,did not induce significantly more apoptosis,–,–,–,–,did not induce significantly more apoptosis,selective cytotoxicity against TNBC cell lines compared to MCF10A cells [10]: not selectively cytotoxic
Oc1ccc(Cl)cc1-c1nc2ccc(C(F)(F)F)cc2[nH]1 [SRI33576],not,noticeably less of an effect,1900 to 3200,5000,not,24,induced significantly more apoptosis,10.7,11.1,24.0,54.3,induced significantly more apoptosis,"inhibition of Wnt/β-catenin signaling (Wnt/β-catenin signaling [11]; colorectal cancer cells, decreasing cytosolic axin2 and β-catenin and overall c-myc, survivin and cyclin D1): inhibit Wnt/β-catenin signaling; phosphorylation of 4EBP1 (p4EBP1 (mTOR signaling) [1]; 5 µM): did not yield such a change; phosphorylation of 4EBP1 (p4EBP1 (mTOR signaling) [3]; 5 µM): inhibited phosphorylation of 4EBP1; nuclear active β-catenin expression (immunocytochemistry) (active β-catenin): a decrease in nuclear active β-catenin expression; expression of cyclin D1 and survivin (cyclin D1 and survivin [6]): decreased expression; phosphorylated LRP6 (phosphorylated LRP6 [8]; 5 µM): decreased phosphorylated LRP6; nuclear active β-catenin expression (Western blot) [9]: decreased nuclear active β-catenin expression"
"Oc1ccc(F)cc1-c1nc2c(Cl)cc(Cl)cc2[nH]1 [SRI35357, 2-(5,7-Dichloro-3H-benzo[d]imidazol-2-yl)-4-fluorophenol]",–,–,–,–,–,–,–,–,–,–,–,–,selective cytotoxicity against TNBC cell lines compared to MCF10A cells [2]: not selectively cytotoxic
C=CCN1CC(=O)N2[C@@H](Cc3ccc(OP(=O)([O-])[O-])cc3)C(=O)N(Cc3cccc4cn(C)nc34)C[C@@H]2N1C(=O)NCc1ccccc1.[Na+].[Na+] [CWP232228],–,–,–,–,–,–,–,–,–,–,–,–,"blood concentration ([12]; IV, 200 mg/kg, for 7 h): 800 ng/mL; toxicity in animals [12]: minimal toxicity and no obvious clinical signs"
"O=C(Nc1ccc([N+](=O)[O-])cc1Cl)c1cc(Cl)ccc1O [niclosamide, reference compound]",markedly decreased,downregulated STAT3 phosphorylation,300 to 1000,1000,decreased phosphorylated LRP6,29.5,–,6.09,10.5,29.5,53.9,–,solubility [13]: 1.6 µM; metabolic stability t1/2 [14]: 29 min
O=[N+]([O-])c1ccc2nc(-c3cc(Cl)ccc3O)[nH]c2c1 [SRI32529],–,–,–,–,–,–,–,–,–,–,–,–,"potency in inhibiting Wnt/β-catenin signaling relative to SRI33576 (Wnt/β-catenin signaling [11]): less potency; effect on STAT3 signaling (pSTAT3 (Y705), STAT3; as summarised in the abstract): mitigated; selective cytotoxicity against TNBC cell lines compared to MCF10A cells [2]: not selectively cytotoxic; outcome of screen for phosphodiesterase inhibitors (phosphodiesterase): not selected as one of the effective inhibitors; effect on mTOR signaling (p4EBP1 (mTOR signaling) [3]; as summarised in the abstract): mitigated; effect on Notch signaling (Notch signaling (Hes1)): mitigated; effect on Wnt/β-catenin signaling (Wnt/β-catenin signaling [15]): inhibited Wnt/β-catenin signaling"
"Mesd: an LRP6 antagonist (protein, UniProt Q14696 34-234, looked up) LRP chaperone MESD: AEGSPGTPDESTPPPRKKKKDIRDYNDADMARLLEQWEKDDDIEEGDLPEHKRPSAPVDFSKIDPSKPESILKMTKKGKTLMMFVTVSGSPTEKETEEITSLWQGSLFNANYDVQRFIVGSDRAIFMLRDGSYAWEIKDFLVGQDRCADVTLEGQVYPGKGGGSKEKNKTKQDKGKKKKEGDLKSRSSKEENRAGNKREDL",–,–,–,–,–,–,–,–,–,–,–,–,"time of highest blood concentration ([16]; mice dosed with 5, 10, 20 mg/kg): 2 h; bioavailability ([16]; mice): about 60%"
